The NIST ThermoML archive (doi:10.1021/acs.jced.9b00246)
± gives the expanded uncertainty stated by the source.

Assay: an = ratio of the nth substance listed
Details: 101.3 kPa, Liquid; for viscosity: Concentric cylinders viscometry; for mass density: Vibrating tube method

CCN.Cl [ethylammonium chloride] + NC(N)=O
Details	mass density, 313.2 K [kg/m3]	mass density, 323.2 K [kg/m3]	mass density, 333.2 K [kg/m3]	mass density, 343.2 K [kg/m3]	mass density, 353.2 K [kg/m3]	viscosity, 313.2 K [mPa·s]	viscosity, 323.2 K [mPa·s]	viscosity, 333.2 K [mPa·s]	viscosity, 343.2 K [mPa·s]	viscosity, 353.2 K [mPa·s]
a2 = 0.5	1103.2 ± 3.4	1098.1 ± 3.3	1093.11 ± 3.3	1088.05 ± 3.2	1083.06 ± 3.2	97.8 ± 9	69.6 ± 5.1	50.8 ± 4.2	40.9 ± 4	34.8 ± 4
a2 = 1	1141.67 ± 3.4	1135.99 ± 3.3	1130.4 ± 3.2	1124.89 ± 3.2	1119.43 ± 3.2	197.7 ± 5.6	110.1 ± 4.6	68.3 ± 4.1	47.6 ± 4.1	34.8 ± 4
a2 = 1.94	1178.75 ± 5	1172.79 ± 5	1166.88 ± 4.9	1160.96 ± 4.8	1155.08 ± 4.8	105.5 ± 12	67.5 ± 6.2	49.2 ± 4.6	37.5 ± 4.2	28.7 ± 4.1
